Test results as given in patent publication US20110236326A1, “Skin Whitener” (Cognis IP Management GmbH, priority 2008, published 2011).

Tests used:
[1] = system: Melanocytes (B16 cell line); test: Melanogenesis inhibition assay (melanin level and cellular proteins); type: cell-based; conditions: 3 days incubation; for Melanin level: B16 cells, OD 475 nm
Experimental: Melanocytes (B16 cell line) are inoculated in standard medium of cell culture with fetal calf serum (FCS). After an incubation of 3 days at 37° C. and CO2=5%, growth medium is exchanged for standard medium with a range of concentrations for the compound to be tested and a control without ingredient. After an incubation of 3 days, the level of melanin is measured by recording the optical density at 475 nm. After washing the cells by a balanced salt, and homogenization in a solution of 0.1 M NaOH, the number of viable cells is determined by the level of cellular proteins (Bradford's method).
The results are expressed in % against control (cell culture medium without compound) as a mean on 1 to 3 assays, each in triplicate.

[2] = system: mushroom tyrosinase; test: Mushroom tyrosinase inhibition assay; type: biochemical; conditions: DOPA substrate, pH 6.8
Experimental: In the melanin biosynthesis pathway, tyrosinase is a key enzyme catalyzing the initial steps: the oxidation of tyrosine into dihydroxyphenylalanine (DOPA) and of DOPA into Dopaquinone. In phosphate buffer at pH 6.8, DOPA is mixed with a range of concentration of the compound to be tested, and a control without compound. After addition of mushroom tyrosinase, oxidation of DOPA is recorded by measuring OD at 475 nm during 30 sec. The % of tyrosinase inhibition is expressed in % against control as a mean of 2-3 assays.

Row | Compound | Melanin level ([1]; dose 0.001 % (w/v)) | Melanin level ([1]; dose 0.003 % (w/v)) | Protein level (rate of cellular proteins, viable cells by Bradford's method) ([1]; dose 0.001 % (w/v)) | Protein level (rate of cellular proteins, viable cells by Bradford's method) ([1]; dose 0.003 % (w/v)) | Melanin level ([1]; dose 0.01 % (w/v)) | Protein level (rate of cellular proteins, viable cells by Bradford's method) ([1]; dose 0.01 % (w/v)) | % of tyrosinase inhibition ([2]; dose 0.0001 % (w/v)) | % of tyrosinase inhibition ([2]; dose 0.001 % (w/v)) | % of tyrosinase inhibition ([2]; dose 0.01 % (w/v))
1 | CN(N)C(=O)Nc1ccccc1 [1-amino-1-methyl-3-phenylurea] | 92 %/control | 88 %/control | 102 %/control | 99 %/control | – | – | – | – | –
2 | Cc1ccc(NC(=O)NN)c(C)c1 [1-amino-3-(2,4-dimethylphenyl)urea] | 98 %/control | 87 %/control | 103 %/control | 99 %/control | – | – | – | – | –
3 | NNC(=O)Nc1ccccc1 [1-amino-3-phenylurea] | 79 %/control | 47 %/control | 95 %/control | 94 %/control | 19 %/control | 104 %/control | 31% | 55% | 89%
